Results: US12116388B2, “Amylin receptor agonists” (Novo Nordisk A/S, priority 2022, dated 2024)
Starred links: 1 amine or outer side, 2 acyl side, 3 side chain; linkers in the order of their positions; H or OH if unused. Residues, ends and D or L forms follow the SMILES beside them. *: point of attachment. C18 diacid = O=C(O)CCCCCCCCCCCCCCCCC(=O)*; γGlu = O=C(O)[C@H](CCC(=O)[*:2])N[*:1]

Assays:
[1] = biological target: T1, human calcitonin receptor (hCTR) (Homo sapiens, UniProt P30988); assay: Human calcitonin receptor (hCTR) in vitro potency assay, CRE-luciferase reporter in BHK cells; type: cell-based; settings: BHK hCTR/CRE-Luc cells, 3 hours incubation, assay buffer with 1% ovalbumin; read-out: hCalcR potency, EC50
T1 construct: host or cells: BHK (Baby Hamster Kidney), Hollex-1 cell line
T1 sequence (P30988 25-474): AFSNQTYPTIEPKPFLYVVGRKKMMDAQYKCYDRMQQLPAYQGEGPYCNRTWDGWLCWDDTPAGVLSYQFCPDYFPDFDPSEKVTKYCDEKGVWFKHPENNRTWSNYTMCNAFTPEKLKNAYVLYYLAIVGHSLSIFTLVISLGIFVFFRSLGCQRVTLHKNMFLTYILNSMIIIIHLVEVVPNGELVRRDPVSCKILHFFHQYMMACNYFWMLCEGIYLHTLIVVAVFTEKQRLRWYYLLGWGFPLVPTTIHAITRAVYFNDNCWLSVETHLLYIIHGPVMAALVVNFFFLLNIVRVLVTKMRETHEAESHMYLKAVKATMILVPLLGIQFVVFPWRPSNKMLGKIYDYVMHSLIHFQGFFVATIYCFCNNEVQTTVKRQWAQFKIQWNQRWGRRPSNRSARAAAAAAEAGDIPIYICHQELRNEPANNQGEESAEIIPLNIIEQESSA
Procedure, shortened: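 BHK cells stably co-expressing human calcitonin receptor and a CRE-luciferase reporter, seeded the day before, were exposed to 7-fold serial dilutions (7 concentrations, often starting near 10 nM) in DMEM/HEPES/1% ovalbumin buffer for 3 h at 37 °C. Luminescence was then read after SteadyLite Plus addition.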

[2] = biological target: T2, human amylin receptor (hAMYR3) (Homo sapiens, UniProt O60896+P30988); assay: Human amylin receptor (hAMYR3) in vitro potency assay, CRE-luciferase reporter in BHK cells; type: cell-based; settings: BHK hAMYR3/CRE-Luc cells, 3 hours incubation, assay buffer with 1% ovalbumin
T2 construct: host or cells: BHK (Baby Hamster Kidney), Hollex-1 cell line further transfected with RAMP3
T2 sequence (O60896 24-148, one chain of several): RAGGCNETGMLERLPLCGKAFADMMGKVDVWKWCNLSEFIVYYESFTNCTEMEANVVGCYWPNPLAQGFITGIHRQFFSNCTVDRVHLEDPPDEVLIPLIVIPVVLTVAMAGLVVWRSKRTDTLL
Procedure, shortened: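 BHK cells stably expressing human calcitonin receptor (a) plus RAMP3 and a CRE-luciferase reporter, seeded overnight, then exposed to 7-point 7-fold dilutions (often from ~10 nM) in DMEM/HEPES buffer with 1% ovalbumin for 3 h at 37 °C. Luciferase luminescence read after SteadyLite Plus addition.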

SMILES | EC50 [1] [pM] | EC50 [2] [pM]
CC[C@H](C)[C@H](NC(=O)[C@H](C)NC(=O)CNC(=O)[C@H](Cc1ccccc1)NC(=O)[C@@H]1CCCN1C(=O)[C@H](CC(=O)O)NC(=O)[C@H](CO)NC(=O)[C@H](CO)NC(=O)[C@H](Cc1c[nH]cn1)NC(=O)[C@H](Cc1c[nH]cn1)NC(=O)[C@H](CC(C)C)NC(=O)[C@H](Cc1ccccc1)NC(=O)[C@H](CCC(=O)O)NC(=O)[C@H](C)NC(=O)[C@H](CC(C)C)NC(=O)[C@H](CCCNC(=N)N)NC(=O)[C@H](CCC(N)=O)NC(=O)[C@@H](NC(=O)[C@H](CCC(N)=O)NC(=O)[C@H](C)NC(=O)[C@@H](NC(=O)[C@H](CO)NC(=O)[C@H](CC(C)C)NC(=O)[C@H](Cc1c[nH]cn1)NC(=O)[C@H](CO)NC(=O)[C@H](C)NC(=O)CC[C@H](NC(=O)CC[C@H](NC(=O)CCCCCCCCCCCCCCCCC(=O)O)C(=O)O)C(=O)O)[C@@H](C)O)[C@@H](C)O)C(=O)N1CCC[C@H]1C(=O)N[C@@H](CO)C(=O)N[C@@H](CO)C(=O)N[C@H](C(=O)N[C@@H](CC(=O)O)C(=O)N[C@H](C(=O)NCC(=O)N1CCC[C@H]1C(=O)N[C@@H](CC(=O)O)C(=O)N[C@H](C(=O)N1CCC[C@H]1C(N)=O)[C@@H](C)O)C(C)C)[C@@H](C)O [Compound 9, N^1-[(4S)-4-carboxy-4-[[(4S)-4-carboxy-4-(17-carboxyheptadecanoylamino)butanoyl]amino]butanoyl]-[Ala1,Ser2,His3,Leu4,Ser5,Ala7,Gln8,Glu14,His17,Asp21,Pro22,Pro27,Asp31,Pro34,Asp35,Pro37]-human amylin] ({C18 diacid-γGlu-γGlu}-ASHLSTAQTQRLAEFLHHSSDPFGAIPSSTDVGPDTP-NH2) | 1.68 | 2.18
CC[C@H](C)[C@H](NC(=O)[C@@H]1CCCN1C(=O)CNC(=O)[C@H](Cc1ccccc1)NC(=O)[C@H](CC(N)=O)NC(=O)[C@H](CC(=O)O)NC(=O)[C@H](CO)NC(=O)[C@H](CO)NC(=O)[C@H](Cc1c[nH]cn1)NC(=O)[C@H](Cc1c[nH]cn1)NC(=O)[C@H](CC(C)C)NC(=O)[C@H](Cc1ccccc1)NC(=O)[C@H](CCC(=O)O)NC(=O)[C@H](C)NC(=O)[C@H](CC(C)C)NC(=O)[C@H](CCCNC(=N)N)NC(=O)[C@H](CCC(N)=O)NC(=O)[C@@H](NC(=O)[C@H](CCC(N)=O)NC(=O)[C@H](CC(C)C)NC(=O)[C@@H](NC(=O)[C@H](CO)NC(=O)[C@H](CC(C)C)NC(=O)[C@H](Cc1c[nH]cn1)NC(=O)[C@H](CO)NC(=O)[C@H](C)NC(=O)CC[C@H](NC(=O)CCCCCCCCCCCCCCCCC(=O)O)C(=O)O)[C@@H](C)O)[C@@H](C)O)C(=O)N[C@@H](CC(C)C)C(=O)N1CCC[C@H]1C(=O)N1CCC[C@H]1C(=O)N[C@H](C(=O)N[C@@H](CC(=O)O)C(=O)N[C@H](C(=O)NCC(=O)N[C@@H](CO)C(=O)N[C@@H](CC(N)=O)C(=O)N[C@H](C(=O)N1CCC[C@H]1C(N)=O)[C@@H](C)O)C(C)C)[C@@H](C)O [Compound 34, N^1-[(4S)-4-carboxy-4-(17-carboxyheptadecanoylamino)butanoyl]-[Ala1,Ser2,His3,Leu4,Ser5,Leu7,Gln8,Glu14,His17,Asp21,Pro25,Pro28,Pro29,Asp31,Pro37]-human amylin] ({C18 diacid-γGlu}-ASHLSTLQTQRLAEFLHHSSDNFGPILPPTDVGSNTP-NH2) | 2.06 | 1.91
CC[C@H](C)[C@H](NC(=O)[C@@H]1CCCN1C(=O)CNC(=O)[C@H](Cc1ccccc1)NC(=O)[C@H](CC(N)=O)NC(=O)[C@H](CC(=O)O)NC(=O)[C@H](CO)NC(=O)[C@H](CO)NC(=O)[C@H](Cc1c[nH]cn1)NC(=O)[C@H](Cc1c[nH]cn1)NC(=O)[C@H](CC(C)C)NC(=O)[C@H](Cc1ccccc1)NC(=O)[C@H](CCC(=O)O)NC(=O)[C@H](C)NC(=O)[C@H](CC(C)C)NC(=O)[C@H](CCCNC(=N)N)NC(=O)[C@H](C)NC(=O)[C@@H](NC(=O)[C@H](CCC(N)=O)NC(=O)[C@H](C)NC(=O)[C@@H](NC(=O)[C@H](CO)NC(=O)[C@H](CC(C)C)NC(=O)[C@H](C)NC(=O)[C@H](CO)NC(=O)[C@H](C)NC(=O)CC[C@H](NC(=O)CCCCCCCCCCCCCCCCC(=O)O)C(=O)O)[C@@H](C)O)[C@@H](C)O)C(=O)N[C@@H](CC(C)C)C(=O)N1CCC[C@H]1C(=O)N1CCC[C@H]1C(=O)N[C@H](C(=O)N[C@@H](CC(=O)O)C(=O)N[C@H](C(=O)NCC(=O)N[C@@H](CO)C(=O)N[C@@H](CC(N)=O)C(=O)N[C@H](C(=O)N1CCC[C@H]1C(N)=O)[C@@H](C)O)C(C)C)[C@@H](C)O [Compound 23, N^1-[(4S)-4-carboxy-4-(17-carboxyheptadecanoylamino)butanoyl]-[Ala1,Ser2,Ala3,Leu4,Ser5,Ala7,Gln8,Ala10,Glu14,His17,Asp21,Pro25,Pro28,Pro29,Asp31,Pro37]-human amylin] ({C18 diacid-γGlu}-ASALSTAQTARLAEFLHHSSDNFGPILPPTDVGSNTP-NH2) | 1.58 | 1.62
CC[C@H](C)[C@H](NC(=O)[C@@H]1CCCN1C(=O)CNC(=O)[C@H](Cc1ccccc1)NC(=O)[C@H](Cc1c[nH]cn1)NC(=O)[C@H](Cc1c[nH]cn1)NC(=O)[C@H](CC(C)C)NC(=O)[C@H](Cc1ccccc1)NC(=O)[C@H](CCC(=O)O)NC(=O)[C@H](C)NC(=O)[C@H](CC(C)C)NC(=O)[C@H](CCCNC(=N)N)NC(=O)[C@H](CCC(N)=O)NC(=O)[C@@H](NC(=O)[C@H](CCC(N)=O)NC(=O)[C@H](C)NC(=O)[C@@H](NC(=O)[C@H](CO)NC(=O)[C@H](CC(C)C)NC(=O)[C@H](Cc1c[nH]cn1)NC(=O)[C@H](CO)NC(=O)[C@H](C)NC(=O)CC[C@H](NC(=O)CC[C@H](NC(=O)CCCCCCCCCCCCCCCCC(=O)O)C(=O)O)C(=O)O)[C@@H](C)O)[C@@H](C)O)C(=O)N[C@@H](CC(C)C)C(=O)N1CCC[C@H]1C(=O)N1CCC[C@H]1C(=O)N[C@H](C(=O)N[C@@H](CC(=O)O)C(=O)N[C@H](C(=O)NCC(=O)N[C@@H](CO)C(=O)N[C@@H](CCC(=O)O)C(=O)N[C@H](C(=O)N1CCC[C@H]1C(N)=O)[C@@H](C)O)C(C)C)[C@@H](C)O [Compound 31, N^1-[(4S)-4-carboxy-4-[[(4S)-4-carboxy-4-(17-carboxyheptadecanoylamino)butanoyl]amino]butanoyl]-[Ala1,Ser2,His3,Leu4,Ser5,Ala7,Gln8,Glu14,His17,Pro25,Pro28,Pro29,Asp31,Glu35,Pro37],des-(19-22)-human amylin] ({C18 diacid-γGlu-γGlu}-ASHLSTAQTQRLAEFLHHFGPILPPTDVGSETP-NH2) | 2.13 | 2.03
CC[C@H](C)[C@H](NC(=O)[C@H](C)NC(=O)CNC(=O)[C@H](Cc1ccccc1)NC(=O)[C@@H]1CCCN1C(=O)[C@H](CC(=O)O)NC(=O)[C@H](CO)NC(=O)[C@H](CO)NC(=O)[C@H](Cc1c[nH]cn1)NC(=O)[C@H](Cc1c[nH]cn1)NC(=O)[C@H](CC(C)C)NC(=O)[C@H](Cc1ccccc1)NC(=O)[C@H](CCC(=O)O)NC(=O)[C@H](C)NC(=O)[C@H](CC(C)C)NC(=O)[C@H](CCCNC(=N)N)NC(=O)[C@H](C)NC(=O)[C@@H](NC(=O)[C@H](CCC(N)=O)NC(=O)[C@H](C)NC(=O)[C@@H](NC(=O)[C@H](CO)NC(=O)[C@H](CC(C)C)NC(=O)[C@H](Cc1c[nH]cn1)NC(=O)[C@H](CO)NC(=O)[C@H](C)NC(=O)CC[C@H](NC(=O)CCCCCCCCCCCCCCCCC(=O)O)C(=O)O)[C@@H](C)O)[C@@H](C)O)C(=O)N1CCC[C@H]1C(=O)N[C@@H](CO)C(=O)N[C@@H](CO)C(=O)N[C@H](C(=O)N[C@@H](CC(=O)O)C(=O)N[C@H](C(=O)NCC(=O)N1CCC[C@H]1C(=O)N[C@@H](CC(=O)O)C(=O)N[C@H](C(=O)N[C@@H](Cc1ccc(O)cc1)C(N)=O)[C@@H](C)O)C(C)C)[C@@H](C)O [Compound 37, N^1-[(4S)-4-carboxy-4-(17-carboxyheptadecanoylamino)butanoyl]-[Ala1,Ser2,His3,Leu4,Ser5,Ala7,Gln8,Ala10,Glu14,His17,Asp21,Pro22,Pro27,Asp31,Pro34,Asp35]-human amylin] ({C18 diacid-γGlu}-ASHLSTAQTARLAEFLHHSSDPFGAIPSSTDVGPDTY-NH2) | 2.16 | 1.68
